Tested on: human myeloma cell line MM.1S
Experiment: SILAC acetylated-lysine peptide profiling, HDAC inhibitor vs DMSO (light/heavy ratio)
Assay type: cell-based
From the text: An embodiment of the invention comprises utilizing the SILAC method in order to quantitate changes in protein expression between two or more populations of cells. The SILAC method is a technique based on mass spectrometry that detects differences in protein abundance among samples using non-radioactive isotopic labeling. The SILAC method is known in the art, and described in detail in Ong et al., “Stable Isotope Labeling by Amino Acids in Cell Culture, SILAC, as a Simple and Accurate Approach to Expression Proteomics”, Molecular & Cellular Proteomics, vol. 1, pp. 376-386 (2002), which is incorporated herein by reference in its entirety.
Briefly, the SILAC method involves growing two populations of cells in cell culture. The first population of cells is grown in growth media containing normal amino acids (“normal media”). The second population of cells is grown in media lacking a standard essential amino acid (such as lysine), but is then supplemented with a non-radioactive, isotopically labeled form of that essential amino acid (such as lysine labeled with ^13C atoms, rather than normal ^12C atoms), which is called “heavy media”. When the two populations of cells are each growing in the medium, they incorporate the amino acids into all of their proteins. The growth of cells maintained in the heavy media is no different from that in normal media. All peptides containing the heavy amino acids are heavier than their normal counterparts. The cells from each of the two populations of cells are lysed. The lysates from each of the two cell populations are then combined. The combined cell lysates are then analyzed by mass spectrometry. Pairs of chemically identical peptides of different stable isotope composition can be differentiated in a mass spectrometer due to their difference in mass. The ratio of peak intensities in the mass spectrum for such peptide pairs reflects the abundance ratio for the two proteins.
This example describes SILAC studies that were performed to compare the effects of three different HDAC inhibitors (Compound A, Compound B, and tubastatin A) to a control on a human multiple myeloma cell line. The HDAC inhibitors were also compared amongst themselves to determine differences in their effects.
A human myeloma cell line MM.1S was grown using either ^12C (light) or ^13C (heavy) lysine containing culture medium. The “heavy” cells were treated with DMSO as the control, and the “light” cells were treated with a single HDAC inhibitor at 37° C. for 6 hours. The heavy and light cells were lysed, and the lysates were mixed in 1:1 ratio and digested with the protease trypsin. The acetylated lysine containing peptides (due to the action of the HDAC inhibitor) in the digested peptide pool were captured by a non-specific anti-acetylated lysine antibody cocktail (the antibodies identify both light and heavy acetylated peptides), and subjected to mass spectrometry analysis in order to identify thousands of individual peptides.
Thousands of peptides were identified in pairs (^12C and ^13C) due to their known mass differences. The amino acid sequence and quantitative ratio (Light/Heavy) of a given peptide in two differentially treated cell lysates were then determined and annotated with their possible protein (gene) sources.
As stated above, three HDAC inhibitors (Compound A, Compound B, and Tubastatin A) were used. Thus, the SILAC method was performed three times, with a different HDAC inhibitor compared to a control each time. Accordingly, there are three pairs of quantitative data in the table below, i.e., Compound A:DMSO, Compound B:DMSO, and Tubastatin A:DMSO. A cut-off of 1.30 fold of change (increase or decrease) was then used to determine “changed” or “+” in the table, and any peptides with a fold of change less than 1.3 fold were determined to be “unchanged” or “0” in the table. Those peptides that were not identified were marked as “NA” in the table. […]

O=C(NO)c1cnc(NC2(c3cccc(F)c3)CCCCC2)nc1 [Compound B, 2-((1-(3-fluorophenyl)cyclohexyl)amino)-N-hydroxypyrimidine-5-carboxamide]
light to heavy ratio (L/H ratio) of acetylated peptide TNFSNEK(ac)TISK (SEQ ID NO: 357) (Acylphosphatase-2 [113], ACYP2, drug:DMSO): 0.84 log 2
light to heavy ratio (L/H ratio), log 2 scale, acetylated peptide SELTGK(ac)FEK (SEQ ID NO: 778) (Annexin A5 [76], gene ANXA5, drug:DMSO): 0.00
light to heavy ratio (L/H ratio) of acetylated peptide TKYEK(ac)SLYSMIK (SEQ ID NO: 270) (Annexin A6 [299], ANXA6, drug:DMSO): 0.00 log 2
light to heavy ratio (L/H ratio) of acetylated peptide AINEAYK(ac)EDYHK (SEQ ID NO: 282) (Annexin A6 [478], ANXA6, drug:DMSO): 0.00 log 2
light to heavy ratio (L/H ratio) of acetylated peptide NKPLFFADK(ac)LYK (SEQ ID NO: 298) (Annexin A6 [607], ANXA6, drug:DMSO): 0.00 log 2
light to heavy ratio (L/H ratio) of acetylated peptide GAGTDEK(ac)TLTR (SEQ ID NO: 621) (Annexin A6 [620], gene ANXA6, inhibitor:DMSO): 0.00 log 2
light to heavy ratio (L/H ratio), log 2 scale, acetylated peptide EFIEK(ac)YDK (SEQ ID NO: 779) (Annexin A6 [644], gene ANXA6, drug:DMSO): 0.00
light to heavy ratio (L/H ratio) of acetylated peptide DDNGK(ac)PYVLPSVR (SEQ ID NO: 579) (Aspartate aminotransferase mitochondrial [73], gene GOT2, inhibitor:DMSO): 0.00 log 2
light to heavy ratio (L/H ratio) of acetylated peptide LVGELK(ac)LDR (SEQ ID NO: 367) (Bactericidal/permeability-increasing protein [237], BPI, drug:DMSO): −0.52 log 2
light to heavy ratio (L/H ratio) of acetylated peptide ELK(ac)EIQYGIR (SEQ ID NO: 540) (Branched-chain-amino-acid aminotransferase [337], gene BCAT2, inhibitor:DMSO): 0.00 log 2
L/H ratio of acetylated peptide FYGDEEK(ac)[…] (SEQ ID NO: 25) (CALR [62], log 2 scale, drug vs DMSO): 0.00
light to heavy ratio (L/H ratio) of acetylated peptide AGLQVYNK(ac)CWK (SEQ ID NO: 260) (CD59 glycoprotein [63], CD59, drug:DMSO): 0.00 log 2
L/H ratio of acetylated peptide (CHAFEK(ac)[…] (SEQ ID NO: 425), NADH dehydrogenase [ubiquinone] iron-sulfur protein 5 [38], NDUFS5): −0.63 log 2
L/H ratio of acetylated peptide […](ac)R (SEQ ID NO: 26) (CLTC [637], log 2 scale, drug vs DMSO): 0.00
L/H ratio of acetylated peptide FK(ac)ESFAEMNR (SEQ ID NO: 1) (COX4I1 [87], log 2 scale, drug vs DMSO): −0.67
L/H ratio of acetylated peptide […](ac)QLCTIPR (SEQ ID NO: 27) (CREBBP [1216], log 2 scale, drug vs DMSO): 0.00
L/H ratio of acetylated peptide TNK(ac)NK(ac)SSISR (SEQ ID NO: 13) (CREBBP [1595:1597], log 2 scale, drug vs DMSO): 0.62
L/H ratio of acetylated peptide ALK(ac)DLYCHK (SEQ ID NO: 28) (CREM [240], log 2 scale, drug vs DMSO): 0.00
L/H ratio of acetylated peptide LYCPK(ac)CMDVYTPK (SEQ ID NO: 29) (CSNK2B [139], log 2 scale, drug vs DMSO): 0.00
light to heavy ratio (L/H ratio) of acetylated peptide NSFDCFK(ac)K (SEQ ID NO: 605) (Calcium-binding mitochondrial carrier protein Aralar2 [379], gene SLC25A13, inhibitor:DMSO): 0.00 log 2
light to heavy ratio (L/H ratio) of acetylated peptide FVLSSGK(ac)FYGDEEKDK (SEQ ID NO: 281) (Calreticulin [55], CALR, drug:DMSO): 0.00 log 2
light to heavy ratio (L/H ratio) of acetylated peptide NVLINK(ac)DIR (SEQ ID NO: 257) (Calreticulin [159], CALR, drug:DMSO): 0.00 log 2
light to heavy ratio (L/H ratio) of acetylated peptide […](ac)GLLK (SEQ ID NO: 569) (Chloride intracellular channel protein 1 [131], gene CLIC1, inhibitor:DMSO): 0.00 log 2
light to heavy ratio (L/H ratio) of acetylated peptide SMSTEGLMK(ac)FVDSK (SEQ ID NO: 330) (Citrate synthase mitochondrial [459], CS, drug:DMSO): 0.76 log 2
light to heavy ratio (L/H ratio), log 2 scale, acetylated peptide MIYASSK(ac)DAIKK (SEQ ID NO: 763) (Cofilin-1 [121], gene CFL1, drug:DMSO): 0.00
light to heavy ratio (L/H ratio) of acetylated peptide AAEEVEAK(ac)FK (SEQ ID NO: 328) (Coiled-coil-helix-coiled-coil-helix domain-containing protein 3 mitochondrial [173], CHCHD3, drug:DMSO): −0.42 log 2
light to heavy ratio (L/H ratio) of acetylated peptide ASEIGEK(ac)YR (SEQ ID NO: 586) (Conserved hypothetical protein [484], gene KIAA0947, inhibitor:DMSO): 0.00 log 2
light to heavy ratio (L/H ratio) of acetylated peptide DHCVAHK(ac)LFNNLK (SEQ ID NO: 608) (Cytochrome b-c1 complex subunit 6 mitochondrial [85], gene UQCRH, inhibitor:DMSO): 0.00 log 2
light to heavy ratio (L/H ratio) of acetylated peptide YFDEK(ac)IAK (SEQ ID NO: 563) (D-beta-hydroxybutyrate dehydrogenase mitochondrial [280], gene BDH1, inhibitor:DMSO): 0.00 log 2
L/H ratio of acetylated peptide FK(ac)[…] (SEQ ID NO: 30) (DAZAP1 [59], log 2 scale, drug vs DMSO): 0.00
L/H ratio of acetylated peptide APTIVGK(ac)SSLNPILFR (SEQ ID NO: 31) (DDOST [189], log 2 scale, drug vs DMSO): 0.00
L/H ratio of acetylated peptide DWVLNEFK(ac)HGK (SEQ ID NO: 33) (DDX5 [388], log 2 scale, drug vs DMSO): 0.00

— patent US20140357512A1, “HISTONE DEACETYLASE (HDAC) BIOMARKERS IN MULTIPLE MYELOMA” (priority 2013, published 2014)
